# Assay results taken from PubChem BioAssay AID588780 (Sanford-Burnham Center for Chemical Genomics, 2011).
# The source made the active and inactive calls.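 How the source made its calls: active means compounds whose fitted half-maximal concentration in the cell-protection dose series is at or below a set limit; inactive means the rest.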
# Test system: H9c2 cardiomyocytes, 2-deoxyglucose stress, ATP luminescence, 2 h
# Experiment: H9c2 cell survival under 2-deoxyglucose stress – uHTS hits, dose response (AID 588780)
row,Compound,IC50
1,Oc1c(Br)cc(Cl)cc1C=Nc1ccccc1Br,31.6 µM (inactive)
2,CC(=O)Nc1ccc(C(=O)Nc2nc(-c3ccccn3)cs2)cc1,32.1 µM (inactive)
3,C[C@H](CO)N1C[C@H](C)[C@@H](CN(C)S(=O)(=O)c2cccs2)Oc2ccc(NC(=O)Nc3ccccc3)cc2C1=O,28.2 µM
4,COc1ccc(C(=O)COC(=O)c2ccc([N+](=O)[O-])s2)cc1OC,> 79 µM (inactive)
5,Cc1ncc(CO)c2cc(C(=O)Nc3ccccc3Cl)c(=Nc3cccc(C(N)=O)c3)oc12,> 79 µM (inactive)
6,COC(=O)/C=C/c1ccc(OC(=O)OC)c(OC(=O)OC)c1,> 79 µM (inactive)
7,N#C/C(=C\c1cn(-c2ccccc2)nc1-c1cccnc1)c1nnc2n1CCCCC2,21.7 µM
8,COc1ccc2[nH]c(=O)c(CN(Cc3ccco3)C(c3nnnn3Cc3ccccc3)C(C)C)cc2c1 (stereo not drawn),> 79 µM (inactive)
9,c1ccc(CN2CCN(CCCNc3ccc4nnc(-c5ccccc5)n4n3)CC2)cc1,13.8 µM
10,Cn1c(=O)c2c(nc(NCCCO)n2C/C=C/c2ccccc2)n(C)c1=O,> 79 µM (inactive)
11,CC(C)(C)OC(=O)NCCCCCNC(=O)c1[nH]cnc1C(=O)Nc1cc(Br)ccc1F,> 79 µM (inactive)
12,CCOC(=O)C1C(=O)NC(SCC(=O)OC)=C(C#N)C1c1ccccc1OCC (stereo not drawn),17 µM
13,CC(=O)c1ccc(-c2cnc3c(NC=O)cc(-c4cccc(NS(C)(=O)=O)c4)cn23)cc1,> 79 µM (inactive)
14,COC(=O)c1cccc(Nc2nc(-c3cccnc3)nc3ccccc23)c1,> 79 µM (inactive)
15,COc1ccc2[nH]c(=O)c(-c3nnn(-c4ccc(F)cc4)n3)cc2c1,> 79 µM (inactive)
16,Cc1ccc2c(C)nc(Nc3nc(CSc4nc5ccccc5[nH]4)cc(=O)[nH]3)nc2c1,> 79 µM (inactive)
17,CC(=O)c1ccc(-c2cnc3c(NC=O)cc(-c4cccc(C(=O)N(C)C)c4)cn23)cc1,14 µM
18,O=C(NCCc1ccccc1Cl)c1ccc2nc3ccccc3c(=O)n2c1,16.8 µM
19,COc1cc(/C=C(\C#N)c2nc3ccc(C)cc3[nH]2)c([N+](=O)[O-])cc1OC,18 µM

row,Compound,IC50
1,COc1ccc(-c2nnc(NC(=O)c3ccc(F)cc3)o2)cc1,> 79 µM (inactive)
2,COCCN1Cc2cccc(C(=O)Nc3cccc(-c4nc5ccccc5[nH]4)c3)c2C1=O,> 79 µM (inactive)
3,COCCn1cnc2c(c1=O)c1nc3ccccc3nc1n2/N=C/c1cccc(OC)c1,38 µM (inactive)
4,CC(OC(=O)Cc1n[nH]c(=O)c2ccccc12)C(=O)Nc1cc(Cl)cc(Cl)c1 (stereo not drawn),22.7 µM
5,Cc1ccc(-c2n[nH]c(=O)c3ccccc23)cc1S(=O)(=O)NCCN1CCOCC1,> 79 µM (inactive)
6,CCOC(=O)C1CCN(c2cc3c(cc2NC(=O)c2ccc(OC)c(OC)c2)n(C)c(=O)n3C)CC1,> 79 µM (inactive)
7,CC(=O)Nc1ccc(Nc2nc(-c3sc(NC(C)=O)nc3C)cs2)cc1,14.4 µM
8,CC(Oc1cccc(Cl)c1)C(=O)Nc1nc(-c2ccccn2)cs1 (stereo not drawn),44.4 µM (inactive)
9,O=C(COC(=O)c1ccc([N+](=O)[O-])o1)Nc1cccc(S(=O)(=O)N2CCCCC2)c1,> 79 µM (inactive)
10,COc1ccc(C(=O)Nc2cc(C)nn2-c2nc3ccccc3[nH]2)c(OC)c1,12.3 µM
11,CC(NC(=O)c1cc2c(=O)n(C)c3ccccc3c2n1C)c1ccc2c(c1)OCCO2 (stereo not drawn),30.5 µM (inactive)
12,CN(C)C(=O)c1ccc(-c2n[nH]c(=O)c3ccccc23)cc1,> 79 µM (inactive)
13,CCOC(=O)C1=C(CC)Nc2ccccc2N=C1NC(=O)c1ccc(S(=O)(=O)N(C)C)cc1,> 79 µM (inactive)
14,O=CNc1cc(-c2ccc(C(=O)NC3CC3)cc2)cn2c(-c3ccccc3)cnc12,12.1 µM
15,COC(=O)c1[nH]c2c(c1C)C(=O)CC(c1cc(OC)ccc1OC)C2 (stereo not drawn),> 79 µM (inactive)
16,CC(C)=CCc1ccc(O)c(=O)cc1C(C)C,> 79 µM (inactive)
17,COc1ccc(-c2cc(C(=O)N3CCN(c4ccccc4)CC3)c3ccccc3n2)cc1OC,> 79 µM (inactive)
18,CN(CC(=O)Nc1ccccc1Br)C(=O)Cn1[nH]c(=O)c2ccccc2c1=O,> 79 µM (inactive)
19,COc1ccc(CCn2c(=O)c3cccnc3n(Cc3ccc([N+](=O)[O-])cc3)c2=O)cc1OC,10.1 µM
